ChEMBL document CHEMBL1138722, “3-(2-Methoxytetrahydrofuran-2-yl)pyrazoles: a novel class of potent, selective cyclooxygenase-2 (COX-2) inhibitors” (Bioorg Med Chem Lett, 2004)

How the values were obtained:
[1] = biological target: T1, Prostaglandin G/H synthase 1 (Homo sapiens, UniProt P23219); test: In vitro inhibition of Prostaglandin G/H synthase 1 in human whole blood at 100 uM; format: tissue-based
[2] = biological target: T2, Prostaglandin G/H synthase 2 (Homo sapiens) (UniProt P35354); conditions: Blood, at 1 µM
T2 sequence (whole entry): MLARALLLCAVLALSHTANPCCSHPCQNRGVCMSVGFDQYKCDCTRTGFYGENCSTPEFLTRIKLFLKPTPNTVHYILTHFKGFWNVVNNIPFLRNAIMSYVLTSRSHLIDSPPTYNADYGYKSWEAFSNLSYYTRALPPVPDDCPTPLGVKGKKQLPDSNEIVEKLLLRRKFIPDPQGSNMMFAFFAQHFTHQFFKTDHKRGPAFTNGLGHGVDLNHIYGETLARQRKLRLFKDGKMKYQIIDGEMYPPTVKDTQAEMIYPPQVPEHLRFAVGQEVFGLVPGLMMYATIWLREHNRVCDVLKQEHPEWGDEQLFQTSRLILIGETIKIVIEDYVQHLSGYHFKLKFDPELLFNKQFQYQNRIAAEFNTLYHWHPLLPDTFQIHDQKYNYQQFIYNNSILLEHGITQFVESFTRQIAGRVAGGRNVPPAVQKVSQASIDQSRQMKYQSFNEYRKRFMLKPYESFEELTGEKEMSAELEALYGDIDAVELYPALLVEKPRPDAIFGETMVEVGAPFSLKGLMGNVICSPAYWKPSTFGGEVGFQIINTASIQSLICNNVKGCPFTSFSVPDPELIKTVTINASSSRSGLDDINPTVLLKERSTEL
Description: In vitro inhibition of Prostaglandin G/H synthase 2 in human whole blood at 1 uM

[3] = biological target: T2, Prostaglandin G/H synthase 2 (Homo sapiens); conditions: Blood, at 10 µM
Description: In vitro inhibition of Prostaglandin G/H synthase 2 in human whole blood at 10 uM

[4] = biological target: T1, Prostaglandin G/H synthase 1; test: In vitro inhibition of Prostaglandin G/H synthase 1 in human whole blood; format: tissue-based
[5] = biological target: T3, Prostaglandin G/H synthase 2 (Homo sapiens, UniProt P35354); test: In vitro inhibition of Prostaglandin G/H synthase 2 in human whole blood; format: tissue-based
T3 sequence (P35354 whole entry): T2 sequence (whole entry)

T1 sequence (P23219 whole entry): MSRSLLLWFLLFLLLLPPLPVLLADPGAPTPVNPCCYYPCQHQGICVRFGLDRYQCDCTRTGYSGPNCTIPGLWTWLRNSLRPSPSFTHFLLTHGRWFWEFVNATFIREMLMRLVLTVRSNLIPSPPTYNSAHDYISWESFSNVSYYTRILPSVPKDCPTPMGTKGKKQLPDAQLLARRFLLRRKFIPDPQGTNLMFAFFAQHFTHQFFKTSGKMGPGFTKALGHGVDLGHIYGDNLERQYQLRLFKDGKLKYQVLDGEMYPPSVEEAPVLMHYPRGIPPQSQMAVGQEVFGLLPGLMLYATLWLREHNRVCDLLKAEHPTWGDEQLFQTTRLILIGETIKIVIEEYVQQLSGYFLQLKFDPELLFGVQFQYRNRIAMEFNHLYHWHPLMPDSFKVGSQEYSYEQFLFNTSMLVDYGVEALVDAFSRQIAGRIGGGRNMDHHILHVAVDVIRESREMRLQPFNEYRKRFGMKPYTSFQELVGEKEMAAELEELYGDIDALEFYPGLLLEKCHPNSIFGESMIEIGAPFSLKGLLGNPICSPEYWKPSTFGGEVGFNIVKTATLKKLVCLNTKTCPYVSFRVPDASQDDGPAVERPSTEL

inhibition [1] [%] | inhibition [2] [%] | inhibition [3] [%] | IC50 [4] [nM] | IC50 [5] [nM] | SMILES
25 | 40 | 75 | – | – | COC1(c2cc(-c3ccc(S(C)(=O)=O)cc3)n(-c3ccc(F)cc3)n2)CCCO1 (stereo not drawn)
60 | 25 | 80 | – | – | COC1(c2cc(-c3ccc(S(C)(=O)=O)cc3)n(-c3ccc(Cl)cc3)n2)CCCO1 (stereo not drawn)
72 | 13 | 84 | – | – | COC1(c2cc(-c3ccc(S(C)(=O)=O)cc3)n(-c3ccc(Br)cc3)n2)CCCO1 (stereo not drawn)
55 | 55 | 90 | > 100000 | 1200 | COC1(c2cc(-c3ccc(S(C)(=O)=O)cc3)n(-c3ccc(C)cc3)n2)CCCO1 (stereo not drawn)
50 | 25 | 70 | – | – | COC1(c2cc(-c3ccc(S(C)(=O)=O)cc3)n(-c3ccc(C(F)(F)F)cc3)n2)CCCO1 (stereo not drawn)
0 | 30 | 25 | – | – | COC1(c2cc(-c3ccc(S(C)(=O)=O)cc3)n(-c3ccc(C#N)cc3)n2)CCCO1 (stereo not drawn)
20 | 30 | 65 | – | – | COC1(c2cc(-c3ccc(S(C)(=O)=O)cc3)n(-c3ccccc3)n2)CCCO1 (stereo not drawn)
